Experimental data published in patent US20070219186A1, “Pyrazolo[1,5-A]pyrimidine derivatives and methods of use thereof” (priority 2006, published 2007).
Like-named read-outs stand apart in the source and are kept apart here.

Target: T1, human B-Raf (Homo sapiens, UniProt P15056)
T1 construct: Flag; GST; made in house; host or cells: Sf9 insect cells (B-Raf); E. coli (MEK1-GST)
Test: B-Raf Kinase to MEK1 ELISA
Assay type: biochemical
Conditions: for inhibition at 10 µM: read-out: % Inhib./10 uM
Procedure, shortened: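 Flag/GST-tagged human B-Raf (Sf9, ~20 ng/point) phosphorylates non-active GST-MEK1 (50 nM final) with ATP and MgCl2 in MOPS pH 7.2 buffer, 60 min at RT. Product is captured on anti-GST plates; MEK1 pSer217/221 is read by phospho-antibody plus europium conjugate (DELFIA).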

[1] = median, cpd concentrations from 10 μM to 30 nM in half log dilutions, read-out: Median IC50

T1 sequence (P15056 whole entry): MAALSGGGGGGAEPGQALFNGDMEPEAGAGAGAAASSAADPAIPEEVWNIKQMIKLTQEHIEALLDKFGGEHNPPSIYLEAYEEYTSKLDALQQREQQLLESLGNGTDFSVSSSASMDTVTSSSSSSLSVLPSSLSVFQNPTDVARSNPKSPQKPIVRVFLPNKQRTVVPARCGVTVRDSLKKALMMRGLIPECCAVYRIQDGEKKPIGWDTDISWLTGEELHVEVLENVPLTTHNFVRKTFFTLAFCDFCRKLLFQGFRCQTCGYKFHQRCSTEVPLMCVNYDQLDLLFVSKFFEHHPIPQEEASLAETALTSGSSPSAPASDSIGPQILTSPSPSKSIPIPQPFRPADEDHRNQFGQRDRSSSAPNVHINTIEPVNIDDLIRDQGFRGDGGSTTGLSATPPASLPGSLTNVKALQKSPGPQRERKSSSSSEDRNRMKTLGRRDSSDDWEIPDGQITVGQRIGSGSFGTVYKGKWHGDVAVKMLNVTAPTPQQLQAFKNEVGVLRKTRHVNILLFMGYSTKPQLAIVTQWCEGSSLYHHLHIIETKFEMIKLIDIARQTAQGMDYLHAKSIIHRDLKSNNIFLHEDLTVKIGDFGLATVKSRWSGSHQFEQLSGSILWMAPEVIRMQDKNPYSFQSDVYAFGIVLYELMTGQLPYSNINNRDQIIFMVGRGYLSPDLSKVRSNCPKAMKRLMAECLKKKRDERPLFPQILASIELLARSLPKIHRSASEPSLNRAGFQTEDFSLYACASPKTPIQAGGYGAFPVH

Compound	IC50 [1]	inhibition at 10 µM	IC50	% Inhib./10 uM (single point assay, 10 uM)
Cc1ccc(C(=O)Nc2cccc(-c3ccnc4c(-c5cccc(C(=O)N(C)C)c5)cnn34)c2)cc1C(F)(F)F [Example 183, N-[3-(3-{3-[(dimethylamino)carbonyl]phenyl}pyrazolo[1,5-a]pyrimidin-7-yl)phenyl]-4-methyl-3-(trifluoromethyl)benzamide]		84%	270 nM	
CCOC(=O)c1cnn2c(-c3cccc(NC(=O)Nc4cc(C(F)(F)F)ccc4Cl)c3)ccnc12 [Example 37, ethyl 7-{3-[({[2-chloro-5-(trifluoromethyl)phenyl]amino}carbonyl)amino]phenyl}pyrazolo[1,5-a]pyrimidine-3-carboxylate]	6820 nM	76%		
O=C(Nc1cccc(-c2ccnc3c(C(=O)NCCCn4ccnc4)cnn23)c1)c1cccc(C(F)(F)F)c1 [Example 55, N-[3-(1H-imidazol-1-yl)propyl]-7-(3-{[3-(trifluoromethyl)benzoyl]amino}phenyl)pyrazolo[1,5-a]pyrimidine-3-carboxamide]	2100 nM	70%		
O=C(Nc1cccc(-c2ccnc3cc(N4CCOCC4)nn23)c1)c1ccc(Cl)c(C(F)(F)F)c1 [Example 197, 4-chloro-N-[3-(2-morpholin-4-ylpyrazolo[1,5-a]pyrimidin-7-yl)phenyl]-3-(trifluoromethyl)benzamide]	200 nM	91%		
N#Cc1c(N2CCNCC2)nn2c(-c3cccc(NC(=O)c4cccc(C(F)(F)F)c4)c3)ccnc12 [Example 62, N-[3-(3-cyano-2-piperazin-1-ylpyrazolo[1,5-a]pyrimidin-7-yl)phenyl]-3-(trifluoromethyl)benzamide]		54%		
CCOC(=O)c1cnn2c(-c3cccc(NC(=O)Cc4ccc5c(c4)OCO5)c3)ccnc12 [Example 100, ethyl 7-{3-[(1,3-benzodioxol-5-ylacetyl)amino]phenyl}pyrazolo[1,5-a]pyrimidine-3-carboxylate]	> 10000 nM	2%		
N#Cc1ccc(-c2cnn3c(-c4cccc(NC(=O)c5cccc(C(F)(F)F)c5)c4)ccnc23)cc1 [Example 295, N-{3-[3-(4-cyanophenyl)pyrazolo[1,5-a]pyrimidin-7-yl]phenyl}-3-(trifluoromethyl)benzamide]	> 10000 nM	41%		
4-[7-(3-{[3-(trifluoromethyl)benzoyl]amino}phenyl)pyrazolo[1,5-a]pyrimidin-2-yl]benzyl acetate [Example 142]	> 10000 nM			48%

Next, values leading:

IC50 [1]	inhibition at 10 µM	IC50	% Inhib./10 uM (single point assay, 10 uM)	Compound
40.7 nM	98%			CN(C)CCc1cccc(-c2cnn3c(-c4cccc(NC(=O)c5cccc(C(F)(F)F)c5)c4)ccnc23)c1 [Example 281, N-[3-(3-{3-[2-(dimethylamino)ethyl]phenyl}pyrazolo[1,5-a]pyrimidin-7-yl)phenyl]-3-(trifluoromethyl)benzamide]
	87%	290 nM		Cc1ccc(C(=O)Nc2cccc(-c3ccnc4c(-c5cccc(O)c5)cnn34)c2)cc1C(F)(F)F [Example 181, N-{3-[3-(3-hydroxyphenyl)pyrazolo[1,5-a]pyrimidin-7-yl]phenyl}-4-methyl-3-(trifluoromethyl)benzamide]
> 10000 nM	0%			CCOC(=O)c1cnn2c(-c3cccc(NC(=O)Cc4cccc(F)c4)c3)ccnc12 [Example 93, ethyl 7-(3-{[(3-fluorophenyl)acetyl]amino}phenyl)pyrazolo[1,5-a]pyrimidine-3-carboxylate]
> 10000 nM	12%			CCOC(=O)c1cnn2c(-c3cccc(NC(=O)c4cc5ccccc5n4C)c3)ccnc12 [Example 219, ethyl 7-(3-{[(1-methyl-1H-indol-2-yl)carbonyl]amino}phenyl)pyrazolo[1,5-a]pyrimidine-3-carboxylate]
> 10000 nM	37%			CCOC(=O)c1cnn2c(-c3cccc(NC(=O)Nc4ccc(Br)cc4)c3)ccnc12 [Example 41, ethyl 7-[3-({[(4-bromophenyl)amino]carbonyl}amino)phenyl]pyrazolo[1,5-a]pyrimidine-3-carboxylate]
